Data as given in US20120122727A1, “IN VITRO METHOD FOR PREDICTING WHETHER A COMPOUND IS GENOTOXIC IN VIVO” (priority 2009, published 2012).

Tests used:
[1] = test system: primary mouse hepatocytes
[2] = test system: primary mouse hepatocytes; assay: Gene expression (Affymetrix Mouse Genome 430 2.0) in primary mouse hepatocytes, true vs false GTX, 24 h and 48 h; conditions: log2, corrected for vehicle control

c1ccc2c(c1)cc1ccc3cccc4ccc2c1c34 [BaP, Benzo(a)pyrene]
Gene expression data AF204959 (Cyp3a25 /// LOC622249) [1]: 0.3057
Gene expression data AF000969 (Cadps2) ([2]; 24 h average): −1.91
Gene expression data AF022072 (Grb10) ([2]; 24 h average): −0.2844
Gene expression data AF065917 (Lif) ([2]; 24 h average): 0.9227
Gene expression data AF297615 (Ggta1) ([2]; 24 h average): 1.735
Gene expression data AI594683 (Dmn) ([2]; 24 h average): 0.731
Gene expression data AI596632 (Ptprg /// LOC632664) ([2]; 24 h average): −1.8362
Gene expression data AI987929 (Ndrg1) ([2]; 24 h average): −0.3648
Gene expression data AK004419 (Fbxl17) ([2]; 24 h average): −1.001
Gene expression data AK005731 (1700007K13Rik) ([2]; 24 h average): 2.016
Gene expression data AK007766 (1810044A24Rik) ([2]; 24 h average): −1.288
Gene expression data AK007854 (1810053B23Rik) ([2]; 24 h average): 0.3514
Gene expression data AK009736 (Gpr137b /// LOC664862 /// LOC673335) ([2]; 24 h average): 0.2174
Gene expression data AK010447 (Smyd3) ([2]; 24 h average): −1.0413
Gene expression data AK014608 (4632434l11Rik) ([2]; 24 h average): 1.665
Gene expression data AK019979 (2610528E23Rik) ([2]; 24 h average): −0.6154
Gene expression data AV095209 (Mthfd1l) ([2]; 24 h average): −0.5885
Gene expression data AV141095 (1110033M05Rik) ([2]; 24 h average): −1.058
Gene expression data AV173571 (1700106N22Rik) ([2]; 24 h average): −1.123
Gene expression data AV219418 (Ldhb) ([2]; 24 h average): 0.2781
Gene expression data AV223474 (Zdhhc14) ([2]; 24 h average): −1.375
Gene expression data AV298304 (Homez) ([2]; 24 h average): 0.6204
Gene expression data AV327248 (Zfp365 /// LOC674611) ([2]; 24 h average): 1.102
Gene expression data AV377066 (9130221J18Rik) ([2]; 24 h average): 0.7572
Gene expression data AW240761 (Tbc1d5) ([2]; 24 h average): −0.703
Gene expression data AW543460 (Pard3) ([2]; 24 h average): −0.6194
Gene expression data AW543723 ([2]; 24 h average): 1.993
Gene expression data AW986246 (Maoa) ([2]; 24 h average): 0.1617
Gene expression data BB027848 (4732466D17Rik) ([2]; 24 h average): 0.0761
Gene expression data BB043558 (9230114K14Rik) ([2]; 24 h average): 1.247
Gene expression data BB275142 (AW456874) ([2]; 24 h average): 1.003
Gene expression data BB308836 (Ppm1l) ([2]; 24 h average): −0.6122
Gene expression data BB318221 (Zdhhc14) ([2]; 24 h average): −1.679
Gene expression data BB463610 (4632434l11Rik) ([2]; 24 h average): 2.144
Gene expression data BB526605 (Mipol1) ([2]; 24 h average): −0.7419
Gene expression data BB770528 (Rai2) ([2]; 24 h average): 0.6977
Gene expression data BB821363 (Scfd2) ([2]; 24 h average): −1.403
Gene expression data BC004827 (Psat1) ([2]; 24 h average): −0.04097
Gene expression data BC008626 (Icam1) ([2]; 24 h average): 0.8234
Gene expression data BC010462 (BC010462) ([2]; 24 h average): 0.6663
Gene expression data BC012247 (Dcxr) ([2]; 24 h average): 0.4451
Gene expression data BC012260 (Psmf1) ([2]; 24 h average): 0.3127
Gene expression data BC015270 (Hist2h3c2) ([2]; 24 h average): 0.7908
Gene expression data BC016073 (Cdkal1) ([2]; 24 h average): −0.6631
Gene expression data BC016265 (Ube2e2) ([2]; 24 h average): −0.751
Gene expression data BC019882 (Acaa1b) ([2]; 24 h average): 2.0133
Gene expression data BC025501 (Aaas) ([2]; 24 h average): 1.5389
Gene expression data BC025837 (Sbk1) ([2]; 24 h average): 0.3802
Gene expression data BC025915 (Cova1) ([2]; 24 h average): −0.5396
Gene expression data BC026422 (Tgm1) ([2]; 24 h average): 0.6019
Gene expression data BF719766 (Thyn1) ([2]; 24 h average): 0.9747
Gene expression data BG065754 (Ccng1) ([2]; 24 h average): 0.8607
Gene expression data BG066903 (Kif16b) ([2]; 24 h average): −0.133
Gene expression data BG069873 (Gnb1l) ([2]; 24 h average): 1.299
Gene expression data BG070887 (Gtdc1) ([2]; 24 h average): −0.9734
Gene expression data BG076151 (Ppm1d) ([2]; 24 h average): 0.728
Gene expression data BG261907 (Large) ([2]; 24 h average): −1.3429
Gene expression data BI651416 (Cdc42bpg) ([2]; 24 h average): 1.679
Gene expression data BI660702 (Ell3) ([2]; 24 h average): 1.3867
Gene expression data BM198879 (Ercc5) ([2]; 24 h average): 1.054
Gene expression data BM230508 (A030007D23Rik) ([2]; 24 h average): 1.297
Gene expression data NM_007987 (Fas) ([2]; 24 h average): 0.8287
Gene expression data NM_008522 (Ltf) ([2]; 24 h average): 1.114
Gene expression data NM_008576 (Abcc1) ([2]; 24 h average): 0.1024
Gene expression data NM_011176 (St14) ([2]; 24 h average): 1.508
Gene expression data NM_011316 (Saa4) ([2]; 24 h average): 0.1871
Gene expression data NM_012006 (Acot1) ([2]; 24 h average): 3.255
Gene expression data NM_013866 (Zfp385) ([2]; 24 h average): 0.776
Gene expression data NM_018770 (Igsf4a) ([2]; 24 h average): −0.8982
Gene expression data NM_021451 (Pmaip1) ([2]; 24 h average): 0.6364
Gene expression data NM_025770 (Atg10) ([2]; 24 h average): −1.053
Gene expression data NM_028803 (Gbe1) ([2]; 24 h average): −0.5416
Gene expression data NM_030697 (Ankrd47) ([2]; 24 h average): 1.4578
Gene expression data NM_053168 (Trim11) ([2]; 24 h average): 0.823
Gene expression data NM_134188 (Acot2) ([2]; 24 h average): 0.5856
Gene expression data Y15910 (Diap2) ([2]; 24 h average): −1.352
Gene expression AA561726 average ([2]; 48 h): −1.7432
Gene expression AF000969 average ([2]; 48 h): −2.251
Gene expression AF022072 average ([2]; 48 h): −1.018
Gene expression AF033112 average ([2]; 48 h): 1.4254
Gene expression AF055573 average ([2]; 48 h): −1.5573
Gene expression AF069954 average ([2]; 48 h): 0.8863
Gene expression AF297615 average ([2]; 48 h): 1.572
Gene expression AF335325 average ([2]; 48 h): 1.4875
Gene expression AI594683 average ([2]; 48 h): 1.466
Gene expression AI747296 average ([2]; 48 h): −2.124
Gene expression AK005731 average ([2]; 48 h): 3.0498
Gene expression AK007854 average ([2]; 48 h): 1.6125
Gene expression AK010447 average ([2]; 48 h): −1.207
Gene expression AK010738 average ([2]; 48 h): 0.9112
Gene expression AK014608 average ([2]; 48 h): 1.245
Gene expression AK017734 average ([2]; 48 h): 0.7529
Gene expression AK018383 average ([2]; 48 h): 1.273
Gene expression AK019979 average ([2]; 48 h): −1.0966
Gene expression AV095209 average ([2]; 48 h): −0.7654
Gene expression AV141095 average ([2]; 48 h): −1.4056
Gene expression AV173869 average ([2]; 48 h): −1.924
Gene expression AV216768 average ([2]; 48 h): −1.447
Gene expression AV219418 average ([2]; 48 h): 1.558
Gene expression AV221299 average ([2]; 48 h): −1.169
Gene expression AV246296 average ([2]; 48 h): 1.1524
Gene expression AV251625 average ([2]; 48 h): 1.731
Gene expression AV254764 average ([2]; 48 h): 1.48
Gene expression AV327248 average ([2]; 48 h): 2.067
Gene expression BB009155 average ([2]; 48 h): 0.784
Gene expression BB027848 average ([2]; 48 h): 0.4738
Gene expression BB043558 average ([2]; 48 h): 1.692
Gene expression BB046347 average ([2]; 48 h): 0.7766
Gene expression BB140436 average ([2]; 48 h): −0.4572
Gene expression BB204486 average ([2]; 48 h): −1.5693
Gene expression BB223872 average ([2]; 48 h): 1.1634
Gene expression BB246912 average ([2]; 48 h): −1.54
Gene expression BB275142 average ([2]; 48 h): 1.0559
Gene expression BB458460 average ([2]; 48 h): −1.384
Gene expression BB463610 average ([2]; 48 h): 1.672
Gene expression BB730977 average ([2]; 48 h): 0.4218
Gene expression BB743970 average ([2]; 48 h): 1.51
Gene expression BB770528 average ([2]; 48 h): 0.7877
Gene expression BB781615 average ([2]; 48 h): 0.9271
Gene expression BC003284 average ([2]; 48 h): 0.7313
Gene expression BC004827 average ([2]; 48 h): −1.186
Gene expression BC005552 average ([2]; 48 h): −0.2121
Gene expression BC006713 average ([2]; 48 h): 0.4721
Gene expression BC010318 average ([2]; 48 h): −0.5529
Gene expression BC012247 average ([2]; 48 h): 1.477
Gene expression BC012955 average ([2]; 48 h): −0.9445
Gene expression BC013893 average ([2]; 48 h): 1.04
Gene expression BC017615 average ([2]; 48 h): −2.234
Gene expression BC019379 average ([2]; 48 h): −1.9807
Gene expression BC019882 average ([2]; 48 h): 2.16
Gene expression BC021352 average ([2]; 48 h): 0.7052
Gene expression BC022148 average ([2]; 48 h): 1.324
Gene expression BC025169 average ([2]; 48 h): −0.5114
Gene expression BC026131 average ([2]; 48 h): −1.045
Gene expression BC027026 average ([2]; 48 h): 1.379
Gene expression BC027121 average ([2]; 48 h): 1.345
Gene expression BC027185 average ([2]; 48 h): 0.7081
Gene expression BE956581 average ([2]; 48 h): 1.451
Gene expression BF719766 average ([2]; 48 h): 0.9507
Gene expression BG065754 average ([2]; 48 h): 0.9746
Gene expression BG066491 average ([2]; 48 h): −2.098
Gene expression BG076151 average ([2]; 48 h): 0.7599
Gene expression BG076333 average ([2]; 48 h): −0.4091
Gene expression BG797099 average ([2]; 48 h): 1.8809
Gene expression BG967046 average ([2]; 48 h): 0.5936
Gene expression BI651416 average ([2]; 48 h): 1.9573
Gene expression BI966443 average ([2]; 48 h): 1.3186
Gene expression BM198879 average ([2]; 48 h): 0.8089
Gene expression BM200015 average ([2]; 48 h): 1.0174
Gene expression BM230508 average ([2]; 48 h): 1.158
Gene expression BM936480 average ([2]; 48 h): 3.0213
Gene expression BQ174991 average ([2]; 48 h): −1.408
Gene expression L21027 average ([2]; 48 h): −1.779
Gene expression NM_007556 average ([2]; 48 h): −1.089
Gene expression NM_007980 average ([2]; 48 h): 1.753
Gene expression NM_007987 average ([2]; 48 h): 1.353
Gene expression NM_008522 average ([2]; 48 h): 2.9351
Gene expression NM_008935 average ([2]; 48 h): −1.4799
Gene expression NM_009897 average ([2]; 48 h): 1.182
Gene expression NM_011075 average ([2]; 48 h): 1.198
Gene expression NM_011176 average ([2]; 48 h): 1.4287
Gene expression NM_011316 average ([2]; 48 h): 0.8735
Gene expression NM_012006 average ([2]; 48 h): 2.867
Gene expression NM_013642 average ([2]; 48 h): −1.442
Gene expression NM_013738 average ([2]; 48 h): 0.9012
Gene expression NM_013929 average ([2]; 48 h): 1.062
Gene expression NM_018881 average ([2]; 48 h): 3.369
Gene expression NM_019738 average ([2]; 48 h): −2.586
Gene expression NM_030697 average ([2]; 48 h): 1.3687
Gene expression NM_053122 average ([2]; 48 h): −1.795
Gene expression NM_134147 average ([2]; 48 h): −1.2396
Gene expression NM_134188 average ([2]; 48 h): 0.2884
Gene expression X62701 average ([2]; 48 h): −1.2338
